Reference: patent publication US20040029758A1 (priority 2000, published 2004)

System: Legionella

## OCl [sodium hypochlorite]
  Legionella test of bath water: detected
Start 300 CFU/100 ml, free residual chlorine max 2 mg/l for 2 hours, then 3 days at sodium hypochlorite 0.4 mg/l, 2000 bathers per day
  Count of the bacteria of the genus Legionella in bath water: 1300 CFU/100 ml
